Measured values as given in patent publication US20170298055A1, “sGC STIMULATORS” (IRONWOOD PHARMACEUTICALS, INC., priority 2014, published 2017).
pIC50: −log10 of the molar value.

Columns and labels:
obese mice = details: cited from earlier work
NO-deficient rats = details: cited from earlier work
[1] = test system: Guinea pig tracheal smooth muscle; experiment: Electrical field stimulated guinea pig tracheal smooth muscle contraction (ex vivo); details: sub-maximal EFS, cumulative dose response curve, three animals pooled; read-out: IC50, inhibition of EFS-induced tracheal smooth muscle contraction
Excerpt: On each experimental day, a guinea pig is killed by exposure to a rising concentration of CO2 and the trachea removed. The trachea is cleaned of extraneous tissue and cut open longitudinally in a line opposite the muscle, opened out and cut into strips 2-3 cartilage rings wide. A cotton loop is attached to one end of each tracheal strip and a length of cotton to the other end. Tracheal strips are then suspended between two platinum electrodes, using tissue holders, in a Myobath system (World Precision Instruments Stevenage, UK). […] Tissues are washed with Kreb's buffer and stimulated using the previously determined sub-maximal voltage for 1 hour to establish a stable baseline contraction prior to assessment of compound activity.
A cumulative dose response curve (DRC) to each test substance is then performed and changes in smooth muscle contraction measured. The effect of each test substance in each experiment is expressed as a percentage inhibition of the baseline contraction, normalized to the relevant vehicle controls. […] The data from all three experiments are pooled, the DRC plotted, and the test substance potency and efficacy determined.

SMILES: O=C(O)CCCCN(CCc1cc(F)ccc1OCc1ccc(-c2ccc(C(F)(F)F)cc2)cc1)Cc1ccc(C(=O)O)cc1 [BAY 60-2770]
- effect on overactive bladder (obese mice): ameliorates overactive bladder in obese mice

SMILES: Nc1nc(-c2nn(Cc3ccccc3F)c3ncccc23)ncc1C1CC1 [BAY-2272]
- effect on bladder dysfunction (NO-deficient rats): protective effects

SMILES: CC(C)[N+]1(C)[C@@H]2CC[C@H]1CC(OC(=O)C(CO)c1ccccc1)C2 (stereo partly drawn) [Ipratropium bromide]
- pIC50 [1]: 9.07
